Laboratory results reported in PubChem BioAssay (NCI).
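GI50 is the concentration that inhibits growth by half. The concentration for full growth arrest is given as TGI.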

Tests used:
Assay in all cases: growth of human tumour cells (NCI), 384-well format
HL-60(TB) leukemia = system: HL-60(TB) leukemia
UACC-62 melanoma = system: UACC-62 melanoma
SN12C renal = system: SN12C renal
OVCAR-3 ovarian = system: OVCAR-3 ovarian
HOP-62 NSCLC = system: HOP-62 NSCLC
MDA-MB-231 breast = system: MDA-MB-231 breast
UACC-257 melanoma = system: UACC-257 melanoma
NCI-H322M lung = system: NCI-H322M lung
HCC-2998 colon = system: HCC-2998 colon
HCT-15 colon = system: HCT-15 colon
A549 NSCLC = system: A549 NSCLC
A498 renal = system: A498 renal
HS 578T breast = system: HS 578T breast
CAKI-1 renal = system: CAKI-1 renal
NCI-H226 lung = system: NCI-H226 lung
SF-295 CNS = system: SF-295 CNS
M14 melanoma = system: M14 melanoma
MALME-3M melanoma = system: MALME-3M melanoma
SK-OV-3 ovarian = system: SK-OV-3 ovarian
SNB-19 CNS = system: SNB-19 CNS
NCI-H460 NSCLC = system: NCI-H460 NSCLC
MCF7 breast = system: MCF7 breast
BT-549 breast = system: BT-549 breast
U251 glioblastoma = system: U251 glioblastoma
SR leukemia = system: SR leukemia
NCI-H23 lung = system: NCI-H23 lung
SF-268 CNS = system: SF-268 CNS
NCI-H522 lung = system: NCI-H522 lung
SF-539 CNS = system: SF-539 CNS
TK-10 renal = system: TK-10 renal
SK-MEL-5 melanoma = system: SK-MEL-5 melanoma
MOLT-4 leukemia = system: MOLT-4 leukemia
COLO 205 colon = system: COLO 205 colon
OVCAR-4 ovarian = system: OVCAR-4 ovarian
SNB-75 CNS = system: SNB-75 CNS
IGROV1 ovarian = system: IGROV1 ovarian
EKVX NSCLC = system: EKVX NSCLC
MDA-MB-435 melanoma = system: MDA-MB-435 melanoma
RPMI-8226 leukemia = system: RPMI-8226 leukemia
HCT-116 colon = system: HCT-116 colon
KM12 colon = system: KM12 colon
MDA-MB-468 breast = system: MDA-MB-468 breast
DU-145 prostate = system: DU-145 prostate
ACHN renal = system: ACHN renal
NCI/ADR-RES ovarian = system: NCI/ADR-RES ovarian
SK-MEL-28 melanoma = system: SK-MEL-28 melanoma

With `O=C(NC1CCNCC1)c1[nH]ncc1NC(=O)c1c(Cl)cccc1Cl` the GI50 (HL-60(TB) leukemia) was 105 nM, the TGI (HL-60(TB) leukemia) was 224 nM and the GI50 (UACC-62 melanoma) was 169 nM. The TGI (UACC-62 melanoma) was 369 nM, the GI50 (SN12C renal) was 181 nM and the TGI (SN12C renal) was 395 nM. It also gave a GI50 (OVCAR-3 ovarian) of 163 nM, a TGI (OVCAR-3 ovarian) of 347 nM and a GI50 (HOP-62 NSCLC) of 212 nM. The TGI (HOP-62 NSCLC) was 500 nM, the GI50 (MDA-MB-231 breast) was 256 nM and the TGI (MDA-MB-231 breast) was > 100000 nM. The GI50 (UACC-257 melanoma) was 246 nM, the TGI (UACC-257 melanoma) was 564 nM and the GI50 (NCI-H322M lung) was 197 nM. The TGI (NCI-H322M lung) was 477 nM, the GI50 (HCC-2998 colon) was 151 nM and the TGI (HCC-2998 colon) was 360 nM. For the same molecule, the GI50 (HCT-15 colon) was 3520 nM, the TGI (HCT-15 colon) was 43500 nM and the GI50 (A549 NSCLC) was 388 nM. The TGI (A549 NSCLC) was > 100000 nM, the GI50 (A498 renal) was 304 nM and the TGI (A498 renal) was 879 nM. For the same molecule, the GI50 (HS 578T breast) was 209 nM, the TGI (HS 578T breast) was 477 nM and the GI50 (CAKI-1 renal) was 371 nM. For the same molecule, the TGI (CAKI-1 renal) was > 100000 nM, the GI50 (NCI-H226 lung) was 205 nM and the TGI (NCI-H226 lung) was 527 nM. For the same molecule, the GI50 (SF-295 CNS) was 352 nM, the TGI (SF-295 CNS) was > 100000 nM and the GI50 (M14 melanoma) was 257 nM. For the same molecule, the TGI (M14 melanoma) was 619 nM, the GI50 (MALME-3M melanoma) was 182 nM and the TGI (MALME-3M melanoma) was 348 nM. For the same molecule, the GI50 (SK-OV-3 ovarian) was 362 nM, the TGI (SK-OV-3 ovarian) was > 100000 nM and the GI50 (SNB-19 CNS) was 326 nM. The TGI (SNB-19 CNS) was > 100000 nM, the GI50 (NCI-H460 NSCLC) was 168 nM and the TGI (NCI-H460 NSCLC) was 379 nM. For the same molecule, the GI50 (MCF7 breast) was 59 nM, the TGI (MCF7 breast) was > 100000 nM and the GI50 (BT-549 breast) was 183 nM. It also gave a TGI (BT-549 breast) of 377 nM, a GI50 (U251 glioblastoma) of 268 nM and a TGI (U251 glioblastoma) of 703 nM. The GI50 (SR leukemia) was 18.5 nM, the TGI (SR leukemia) was 37.3 nM and the GI50 (NCI-H23 lung) was 180 nM. It also gave a TGI (NCI-H23 lung) of 345 nM, a GI50 (SF-268 CNS) of 186 nM and a TGI (SF-268 CNS) of 478 nM. For the same molecule, the GI50 (NCI-H522 lung) was 202 nM, the TGI (NCI-H522 lung) was 384 nM and the GI50 (SF-539 CNS) was 212 nM. It also gave a TGI (SF-539 CNS) of 454 nM, a GI50 (TK-10 renal) of 528 nM and a TGI (TK-10 renal) of 9380 nM. It also gave a GI50 (SK-MEL-5 melanoma) of 183 nM, a TGI (SK-MEL-5 melanoma) of 337 nM and a GI50 (MOLT-4 leukemia) of 200 nM. The TGI (MOLT-4 leukemia) was 344 nM, the GI50 (COLO 205 colon) was 126 nM and the TGI (COLO 205 colon) was 391 nM. For the same molecule, the GI50 (OVCAR-4 ovarian) was 262 nM, the TGI (OVCAR-4 ovarian) was 560 nM and the GI50 (SNB-75 CNS) was 194 nM. It also gave a TGI (SNB-75 CNS) of 356 nM, a GI50 (IGROV1 ovarian) of 286 nM and a TGI (IGROV1 ovarian) of 809 nM. For the same molecule, the GI50 (EKVX NSCLC) was 366 nM, the TGI (EKVX NSCLC) was 1830 nM and the GI50 (MDA-MB-435 melanoma) was 191 nM. For the same molecule, the TGI (MDA-MB-435 melanoma) was 379 nM, the GI50 (RPMI-8226 leukemia) was 200 nM and the TGI (RPMI-8226 leukemia) was 344 nM. The GI50 (HCT-116 colon) was 202 nM, the TGI (HCT-116 colon) was > 100000 nM and the GI50 (KM12 colon) was 176 nM. The TGI (KM12 colon) was > 100000 nM, the GI50 (MDA-MB-468 breast) was 157 nM and the TGI (MDA-MB-468 breast) was 296 nM. For the same molecule, the GI50 (DU-145 prostate) was 260 nM, the TGI (DU-145 prostate) was 692 nM and the GI50 (ACHN renal) was 2360 nM. The TGI (ACHN renal) was 34900 nM, the GI50 (NCI/ADR-RES ovarian) was > 100000 nM and the TGI (NCI/ADR-RES ovarian) was > 100000 nM. The GI50 (SK-MEL-28 melanoma) was 187 nM and the TGI (SK-MEL-28 melanoma) was 394 nM.
